# Source: the supplement of paper PMC11208160
# Assay: recombinant UMI read abundance after kanamycin selection (control-corrected) (log10(CPM+1)); higher = more efficient recombination; extreme values may be limits of the assay; sequences stand for … in AGTGCAGAGAAAATCGGCCAGTTTTCTCTGCCTGCAGTCCGCATGCCGTGGGACCCCTTGGGTTCTAACCTGTTGCCTAGATTTATGCAGCGGACTGCCTTTCTCCCAAAGTGATAAACCGG…AGGTTGGTTTCACT; site = the 11-nt donor
# Summary of the method: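 Sequencing read counts were converted to CPM, averaged over two replicates and scaled by control-derived factors. Results are given as log10(CPM+1). The reads covered the donor–target junction of recombinant UMIs from a pooled Escherichia coli screen of donor and donor-binding-loop pairs for the IS621 bridge recombinase.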
# 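Note: IS621 bridge recombinase in Escherichia coli cells against a fixed T5 target plasmid.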
row,Sequence,recombinant UMI read abundance (log10)
1,CGGTAGTCATGGACCGGTTTTCCCGGTAATCCGTATTTGCC (site CGGTAGTCTGG),2.78
2,CTAAAAGCATGGACCGGTTTTCCCGGTAATCCGTATTTGGC (site CTAAAAGCTGC),0
3,CGACAATCATGGACCGGTTTTCCCGGTAATCCGTATTTGCT (site CGATCATCTAG),0
4,GGCAATCCATGGACCGGTTTTCCCGGTAATCCGTATTTGAA (site GGCAGTCCTTT),0
5,TTGACCACATGGACCGGTTTTCCCGGTAATCCGTATTTGCC (site TTGACCACTGG),1.79
6,GATTATCCATGGACCGGTTTTCCCGGTAATCCGTATTTGCT (site GATCATCCTAG),0.81
7,GTGCAAGCATGGACCGGTTTTCCCGGTAATCCGTATTTGGT (site GTGCACGCTAC),0.00225
8,CTAAGAACATGGACCGGTTTTCCCGGTAATCCGTATTTGAA (site CTAAGAACTTT),2.44
9,CGGGAGGCATGGACCGGTTTTCCCGGTAATCCGTATTTGCC (site CGGGAGTCTGG),0
10,GATTATCCATGGACCGGTTTTCCCGGTAATCCGTATTTGCT (site GATTGTCCTAG),0
11,AGGTTCCCATGGACCGGTTTTCCCGGTAATCCGTATTTGAG (site AGGTTCCCTCT),0.00255
12,TGCGAGGCATGGACCGGTTTTCCCGGTAATCCGTATTTGGT (site TGCAAGGCTAC),0.35
13,GCGAAAACATGGACCGGTTTTCCCGGTAATCCGTATTTGAT (site GCGAAAACTAG),0
14,TTTCTCTCATGGACCGGTTTTCCCGGTAATCCGTATTTGTA (site CTTCTCTCTTA),0.301
15,TGGCCGGCATGGACCGGTTTTCCCGGTAATCCGTATTTGCC (site TGGCCGGCTGA),0.00339
16,CGACCCACATGGACCGGTTTTCCCGGTAATCCGTATTTGGT (site CGACCCACTAC),1.23
17,ACAGTCTCATGGACCGGTTTTCCCGGTAATCCGTATTTGCT (site ACAGTCTCTAG),2.94
18,ACCTCGACATGGACCGGTTTTCCCGGTAATCCGTATTTGGG (site ACCTAGACTCC),0.0526
19,CGGTCGACATGGACCGGTTTTCCCGGTAATCCGTATTTGGA (site CGGTCGACTTC),0.112
20,TCCACCGCATGGACCGGTTTTCCCGGTAATCCGTATTTGCA (site TCCACCGCTGG),0
21,GGACTAGCATGGACCGGTTTTCCCGGTAATCCGTATTTGCG (site GGACTAGCTCG),2.05
22,AGGACTACATGGACCGGTTTTCCCGGTAATCCGTATTTGAC (site AGGACTGCTGT),0.359
23,CCATAAACATGGACCGGTTTTCCCGGTAATCCGTATTTGAA (site CCATAAACTTT),1.22
24,AGTCTTTCATGGACCGGTTTTCCCGGTAATCCGTATTTGAC (site AGTCTTTCTGT),0
25,TTCGTAACATGGACCGGTTTTCCCGGTAATCCGTATTTGAA (site GCTCGGCCTCC),0.019

row,Sequence,recombinant UMI read abundance (log10)
1,ACTAGCACATGGACCGGTTTTCCCGGTAATCCGTATTTGAG (site ACTAGTACTCT),0.517
2,GGATATACATGGACCGGTTTTCCCGGTAATCCGTATTTGCC (site GGATAAACTGG),0
3,TGCTAGGCATGGACCGGTTTTCCCGGTAATCCGTATTTGTT (site TGCTAGGCTAC),0.00683
4,CGAGCGACATGGACCGGTTTTCCCGGTAATCCGTATTTGAA (site CGAGCGACTTT),1.74
5,CGATCAACATGGACCGGTTTTCCCGGTAATCCGTATTTGCT (site CGATCAACTAG),2.27
6,CCATACTCATGGACCGGTTTTCCCGGTAATCCGTATTTGCA (site GCATACTCTTG),0
7,TGGCAGGCATGGACCGGTTTTCCCGGTAATCCGTATTTGGC (site TGGCAGGCTGC),0.909
8,GCGTATTCATGGACCGGTTTTCCCGGTAATCCGTATTTGTG (site GCGTATTCTCA),2.49
9,TGCGGAACATGGACCGGTTTTCCCGGTAATCCGTATTTGCG (site TGCGGAACTCG),0.885
10,ACAGTATCATGGACCGGTTTTCCCGGTAATCCGTATTTGCA (site GAAGTATCTTG),2.82
11,TGCCTAGCATGGACCGGTTTTCCCGGTAATCCGTATTTGTT (site AGCCTAGCTAA),0.014
12,CCCATATCATGGACCGGTTTTCCCGGTAATCCGTATTTGTC (site CCCAAATCTGA),0
13,CGGGATCCATGGACCGGTTTTCCCGGTAATCCGTATTTGTA (site CGGAATCCTAA),0
14,CGGAAATCATGGACCGGTTTTCCCGGTAATCCGTATTTGTT (site CGGAATCCTAA),0
15,TCTAGTGCATGGACCGGTTTTCCCGGTAATCCGTATTTGGT (site TCTAGTGCTAC),0.0256
16,GTTACAACATGGACCGGTTTTCCCGGTAATCCGTATTTGGC (site GTTATAACTGC),0
17,TAGCTCACATGGACCGGTTTTCCCGGTAATCCGTATTTGAT (site TAGCTCACTAT),1.47
18,TACTCGACATGGACCGGTTTTCCCGGTAATCCGTATTTGTC (site TACTCGACTGA),0.0119
19,CCATAGCCATGGACCGGTTTTCCCGGTAATCCGTATTTGCC (site CCATAGCCTGG),0
20,GCCTGCCCATGGACCGGTTTTCCCGGTAATCCGTATTTGAT (site GCGTGCCCTAT),0.0203
21,GAAGATTCATGGACCGGTTTTCCCGGTAATCCGTATTTGTT (site GGAGATTCTAA),0.379
22,TGTAAATCATGGACCGGTTTTCCCGGTAATCCGTATTTGTT (site TGTAAATCTAA),1.13
23,TGTGCACCATGGACCGGTTTTCCCGGTAATCCGTATTTGAC (site TGTGCACCTGT),0
24,GAAGATTCATGGACCGGTTTTCCCGGTAATCCGTATTTGTT (site GTAGATTCTAA),0.39
25,GTTGTTGCATGGACCGGTTTTCCCGGTAATCCGTATTTGGT (site GTTGTTGCTAC),1.83

row,Sequence,recombinant UMI read abundance (log10)
1,CGTGAACCATGGACCGGTTTTCCCGGTAATCCGTATTTGAT (site CGGGAACCTAT),0
2,CCCACCCCATGGACCGGTTTTCCCGGTAATCCGTATTTGGC (site CCCACCCCTGC),0
3,TTACAGACATGGACCGGTTTTCCCGGTAATCCGTATTTGAG (site TTACAGACTCT),1.21
4,CCCTTCTCATGGACCGGTTTTCCCGGTAATCCGTATTTGGG (site CCCTGCTCTCC),0.0154
5,GAAGATTCATGGACCGGTTTTCCCGGTAATCCGTATTTGTT (site GAGGATTCTAA),0
6,GAGCCGTCATGGACCGGTTTTCCCGGTAATCCGTATTTGAT (site GAGCCGTCTAT),1.32
7,GCTACTGCATGGACCGGTTTTCCCGGTAATCCGTATTTGCA (site GCTACTGCTGG),0
8,GTATGGCCATGGACCGGTTTTCCCGGTAATCCGTATTTGCA (site GTATGGCCTTG),0
9,CAACACACATGGACCGGTTTTCCCGGTAATCCGTATTTGTG (site CAACACACTCA),0.834
10,TCTAATACATGGACCGGTTTTCCCGGTAATCCGTATTTGGC (site GCTAATACTGC),0
11,AGCCTAGCATGGACCGGTTTTCCCGGTAATCCGTATTTGTT (site TGCCTAGCTAA),0.00782
12,AAGTAGGCATGGACCGGTTTTCCCGGTAATCCGTATTTGGC (site AAGTAGGCTGC),2.2
13,CGGACACCATGGACCGGTTTTCCCGGTAATCCGTATTTGCT (site CGGACAACTAG),0
14,CAGTGCTCATGGACCGGTTTTCCCGGTAATCCGTATTTGGT (site CAGTGCTCTAC),2.49
15,ATGTCGCCATGGACCGGTTTTCCCGGTAATCCGTATTTGCC (site ATGTCGCCTGG),0
16,ACCCGTCCATGGACCGGTTTTCCCGGTAATCCGTATTTGAT (site AGCCGTCCTAT),0.0209
17,CCCTTCTCATGGACCGGTTTTCCCGGTAATCCGTATTTGGG (site CCCTTATCTCC),0
18,GGTTCGTCATGGACCGGTTTTCCCGGTAATCCGTATTTGTT (site GGTCCGTCTAA),0.0123
19,GTGGATACATGGACCGGTTTTCCCGGTAATCCGTATTTGTG (site GTGGATACTCA),1.92
20,ACAGTATCATGGACCGGTTTTCCCGGTAATCCGTATTTGCA (site TCACTATCTTG),0.822
21,TAGCTACCATGGACCGGTTTTCCCGGTAATCCGTATTTGAA (site TAGCTATCTTT),0.784
22,ACAGTTTCATGGACCGGTTTTCCCGGTAATCCGTATTTGCG (site ACAGTATCTTG),0
23,GATTATCCATGGACCGGTTTTCCCGGTAATCCGTATTTGCT (site GAATATCCTAG),0
24,AGGACTGCATGGACCGGTTTTCCCGGTAATCCGTATTTGAC (site AGGACTCCTGT),0.533
25,TAGCACGCATGGACCGGTTTTCCCGGTAATCCGTATTTGGG (site GAGCACGCTCC),0.0209
